Results taken from patent US20220267268A1, “NEW TRICYCLIC 5-HT2 ANTAGONISTS” (Anamar AB, priority 2019, published 2022).
Where a name gives a salt, the structure may show the parent alone. Marks after values point to notes of the source that are not given here.

Columns and labels:
5-HT2B receptor [1] = target: T1, 5-HT2B receptor (Homo sapiens, UniProt P41595); assay: 5-HT2B receptor binding, ligand displacement assay, alternative (*) with 3H-mesulergine; settings: * 3H-mesulergine radioligand, SB 206553 reference; for 5-HT2B receptor binding (% displacement) 1 nM: 1 nM compound; for inhibition at 0.01 µM: 10 nM compound; for 5-HT2B receptor binding (% displacement) 100 nM: 100 nM compound
T1 construct: host or cells: CHO-K1
Procedure: (§1) 5-HT2B receptor binding (performed at Eurofins Panlabs Taiwan, Ltd.) to human receptor protein expressed in CHO-K1 cells was determined in a ligand displacement assay using ^3H-lysergic acid diethylamide (LSD) as radioligand and ketanserine as a standard reference compound, or alternatively*, with ^3H-mesulergine and SB 206553 as reference. Data is presented as % displacement of radioligand at indicated compound concentrations, see Table 1.

5-HT2B receptor [2] = target: T1, 5-HT2B receptor; assay: 5-HT2B receptor binding, ligand displacement assay with 3H-LSD radioligand; settings: human receptor in CHO-K1; for inhibition at 0.001 µM: 1 nM compound; for inhibition at 0.01 µM: 10 nM compound; for inhibition at 0.1 µM: 100 nM compound
Procedure: as §1

5-HT2B receptor [3] = target: T1, 5-HT2B receptor; assay: 5-HT2B receptor antagonism, inhibition of 5-HT stimulated IP-1 accumulation (HTRF) in CHO-K1 cells; type: cell-based; settings: 5-HT (5 nM) stimulated IP-1 accumulation; for inhibition at 0.001 µM: 1 nM compound; for inhibition at 0.01 µM: 10 nM compound; for inhibition at 0.1 µM: 100 nM compound; for inhibition at 1 µM: 1000 nM compound
Procedure: (§2) 5-HT2B receptor antagonism (performed at Eurofins Panlabs Taiwan, Ltd.) was determined in CHO-K1 cells expressing human receptor protein as inhibition of 5-HT (5 nM) stimulated IP-1 accumulation measured by HTRF quantitation. SB 206553 was used as a standard reference compound. The antagonistic response is expressed as % inhibition of the 5-HT induced effect, see Table 2.

5-HT2B receptor [4] = target: T1, 5-HT2B receptor; assay: 5-HT2B receptor agonism, IP-1 accumulation in CHO-K1 cells without prior 5-HT stimulation; type: cell-based; settings: % of IP-1 accumulation induced by 5-HT (1 uM); for 5-HT2B receptor agonism (% of positive control) 1 nM: 1 nM compound; for 5-HT2B receptor agonism (% of positive control) 10 nM: 10 nM compound; for 5-HT2B receptor agonism (% of positive control) 100 nM: 100 nM compound; for 5-HT2B receptor agonism (% of positive control) 1000 nM: 1000 nM compound
Procedure: as §2
5-HT2B receptor agonism (performed at Eurofins Panlabs Taiwan, Ltd.) was determined in the same model as described above in Example 50 without prior stimulation with 5-HT. The agonistic response is expressed as % of the IP-1 accumulation induced by 5-HT (1 uM) stimulation, see Table 3.

T1 sequence (P41595 whole entry): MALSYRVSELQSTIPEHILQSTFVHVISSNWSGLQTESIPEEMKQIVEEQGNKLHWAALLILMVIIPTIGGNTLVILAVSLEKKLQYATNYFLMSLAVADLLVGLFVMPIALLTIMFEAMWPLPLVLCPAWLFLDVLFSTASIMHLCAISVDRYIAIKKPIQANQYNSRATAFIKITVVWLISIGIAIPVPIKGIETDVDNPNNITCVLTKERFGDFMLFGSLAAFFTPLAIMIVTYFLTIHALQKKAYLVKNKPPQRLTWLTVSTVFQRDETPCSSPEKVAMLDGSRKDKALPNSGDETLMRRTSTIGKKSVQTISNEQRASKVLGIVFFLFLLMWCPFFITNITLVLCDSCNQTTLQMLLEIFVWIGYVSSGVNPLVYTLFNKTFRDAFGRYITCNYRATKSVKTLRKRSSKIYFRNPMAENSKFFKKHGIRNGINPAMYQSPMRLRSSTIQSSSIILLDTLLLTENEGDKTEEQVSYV

SMILES	5-HT2B receptor binding (% displacement) 1 nM (5-HT2B receptor [1])	inhibition at 0.01 µM (5-HT2B receptor [1]) [%]	5-HT2B receptor binding (% displacement) 100 nM (5-HT2B receptor [1])	inhibition at 0.001 µM (5-HT2B receptor [2]) [%]	inhibition at 0.01 µM (5-HT2B receptor [2]) [%]	inhibition at 0.1 µM (5-HT2B receptor [2]) [%]	inhibition at 0.001 µM (5-HT2B receptor [3]) [%]	inhibition at 0.01 µM (5-HT2B receptor [3]) [%]	inhibition at 0.1 µM (5-HT2B receptor [3]) [%]	inhibition at 1 µM (5-HT2B receptor [3]) [%]	5-HT2B receptor agonism (% of positive control) 1 nM (5-HT2B receptor [4]) [%]	5-HT2B receptor agonism (% of positive control) 10 nM (5-HT2B receptor [4]) [%]	5-HT2B receptor agonism (% of positive control) 100 nM (5-HT2B receptor [4]) [%]	5-HT2B receptor agonism (% of positive control) 1000 nM (5-HT2B receptor [4]) [%]
CC1CN(C(=N)N)c2ccc3c([S+](C)[O-])cccc3c21 (stereo not drawn) [Example 38, 1-Methyl-6-(methylsulfinyl)-1,2-dihydro-3H-benzo[e]indole-3-carboximidamide 2,2,2-trifluoroacetic acid salt]	4* %	7	20* %											
CC1CN(C(=N)N)c2ccc3c(C(F)(F)F)cccc3c21 (stereo not drawn) [Example 35, 1-Methyl-6-(trifluoromethyl)-1,2-dihydro-3H-benzo[e]indole-3-carboximidamide 2,2,2-trifluoroacetic acid salt]	21%	52	91%	11	61	92								
CC1CN(C(=N)N)c2ccc3c(S(C)(=O)=O)cccc3c21 (stereo not drawn) [Example 39, 1-Methyl-6-(methylsulfonyl)-1,2-dihydro-3H-benzo[e]indole-3-carboximidamide 2,2,2-trifluoroacetic acid salt]	6* %	8	28* %											
CC1CN(C(=N)N)c2ccc3c(F)cccc3c21 (stereo not drawn) [Example 33, 6-Fluoro-1-methyl-1,2-dihydro-3H-benzo[e]indole-3-carboximidamide 2,2,2-trifluoroacetic acid salt]				28	82	101	29	81	99	100	−1	4	26	−1
CC1CN(C(=N)N)c2ccc3c(I)cccc3c21 (stereo not drawn) [Example 34, 6-Iodo-1-methyl-1,2-dihydro-3H-benzo[e]indole-3-carboximidamide 2,2,2-trifluoroacetic acid salt]	30* %	88	102* %											
CSc1cccc2c3c(ccc12)N(C(=N)N)CC3C (stereo not drawn) [Example 37, 1-Methyl-6-(methylthio)-1,2-dihydro-3H-benzo[e]indole-3-carboximidamide 2,2,2-trifluoroacetic acid salt]	5* %	53	94* %											
CC1CN(C(=N)N)c2ccc3cc(F)ccc3c21.Cl (stereo not drawn) [Example 1, 7-Fluoro-1-methyl-1,2-dihydro-3H-benzo[e]indole-3-carboximidamide hydrochloride]				9	49	88	2	14	80	97	−1	2	7	0
CC1CN(C(=N)N)c2ccc3c(-c4ccccc4)cccc3c21 (stereo not drawn) [Example 41, 1-Methyl-6-phenyl-1,2-dihydro-3H-benzo[e]indole-3-carboximidamide hydrochloride]				0	7	40								
CC1CN(C(=N)N)c2cc(F)c3c(Cl)cccc3c21 (stereo not drawn) [Example 45, 6-Chloro-5-fluoro-1-methyl-1,2-dihydro-3H-benzo[e]indole-3-carboximidamide hydrochloride]				77	100	98								
C#Cc1cccc2c3c(ccc12)N(C(=N)N)CC3C (stereo not drawn) [Example 40, 6-Ethynyl-1-methyl-1,2-dihydro-3H-benzo[e]indole-3-carboximidamide 2,2,2-trifluoroacetic acid salt]	26* %	64	94* %											
COc1cccc2c3c(ccc12)N(C(=N)N)CC3C (stereo not drawn) [Example 36, 6-Methoxy-1-methyl-1,2-dihydro-3H-benzo[e]indole-3-carboximidamide 2,2,2-trifluoroacetic acid salt]	10* %	48	90* %											
CC1CN(C(=N)N)c2ccc3c(Cl)cccc3c21.Cl (stereo not drawn) [Example 11, 6-Chloro-1-methyl-1,2-dihydro-3H-benzo[e]indole-3-carboximidamide hydrochloride]				63	97	103	53	89	99	96	1	5	−2	1
COCCNC(=N)N1CC(C)c2c1ccc1c(Br)cccc21 (stereo not drawn) [Example 23, 6-Bromo-N-(2-methoxyethyl)-1-methyl-1,2-dihydro-3H-benzo[e]indole-3-carboximidamide 2,2,2-trifluoroacetic acid salt]					100									
CNC(=N)N1CC(C)c2c1ccc1ccccc21 (stereo not drawn) [Example 6, N,1-Dimethyl-1,2-dihydro-3H-benzo[e]indole-3-carboximidamide hydrochloride]				18	57	93								
CC1CN(C(=N)N)c2ccc3c(Br)cccc3c21.Cl (stereo not drawn) [Example 2, 6-Bromo-1-methyl-1,2-dihydro-3H-benzo[e]indole-3-carboximidamide hydrochloride]				72	96	98	56	91	95	96	−3	−5	−3	−4
CC1CN(C(=N)N)c2cnc3ccccc3c21 (stereo not drawn) [Example 5, 1-Methyl-1,2-dihydro-3H-pyrrolo[2,3-c]quinoline-3-carboximidamide hydrochloride]				11	28	71								
